From patent US20020150990A1, “Hepatitis C virus peptides” (priority 1992, published 2002) come the findings set out here.

The assay deals with antibodies against HCV. The assay can be described thus: PEPSCAN analysis of overlapping octameric peptides of the HCV core protein N-terminal region with HCV-seropositive sera. The class given is binding, human. The conditions noted are these: read at 405 nm. From the text:
The N-terminal 97 amino acid residues of HCV Core protein SEQ ID NO: 8 was mapped with PEPSCAN analysis. This process involved the serological analysis of sequentially overlapping peptides which spanned the region of interest, to identify epitopic domains. Ninety overlapping octameric peptides were synthesized on polypropylene pin supports according to the manufacturer's instructions (Cambridge Research Biochemicals), such that each peptide overlapped with the preceding sequence by the seven N-terminal residues, and with the subsequent peptide by the seven C-terminal residues. Serum or IgG purified from the serum of individuals confirmed to be seropositive for HCV were used to screen the peptides.
The assay procedure followed was performed basically as described in the manufacturers instruction manual. The time and temperature of the test antibody incubation differed from that prescribed, thereby decreasing the time taken for each assay.
Sera: A total of 16 sera were assayed by PEPSCAN. These consisted of 12 sera from paid U.S. Donors which were identified as being positive for antibodies against HCV in routine screening at the site of donation. The remaining four sera were from patients diagnosed as having non-A non-B hepatitis, and which were subsequently shown to contain antibodies to HCV. Sera were screened either as the crude serum fraction, or as a caprylic acid preparation. Caprylic acid purification of IgG from the sera was performed as described by Stienbuch and Audran (1969) Arch. Biochem. Biophys. 134, 279-284.
Assay: The assay format involves sequentially incubating the various pins in microwell plates containing blocking, test antibody, conjugate, and substrate solutions. The immune complex builds up on the pin with the enzyme labelled conjugate being immobilized on the bound anti-peptide antibody from the test serum. When the pin is then immersed in substrate, the enzyme brings about the colour change which is used to quantify the amount of anti-peptide antibody bound.
Blocking: Pins are immersed in 200 μl of Supercocktail (1% Ovalbumin, 1% bovine serum albumin in 0.15M phosphate buffered saline pH 7.2—0.1% Tween 20) and left to stand at room temperature for 1 hour.
Test antibody: The test antibody is diluted between 1/200 (IgG) and 1/1000 (serum) in supercocktail. The pins are then stood in this solution (175 μl/well) at 37° C. for 1 hour. After this incubation the pins are washed four times in 0.15M phosphate buffered saline pH 7.2—0.05% Tween 20, each at room temperature for 10 minutes.
Conjugate: Rabbit anti-human IgG coupled to horseradish peroxidase is diluted 1/1000 in supercocktail. The peptide bearing pins are then stood in this solution at room temperature for 1 hour. Once again the pins are then washed four times as above.
Substrate: The substrate solution is made up fresh for each assay. To 100 ml of 0.1M phosphate, 0.08M citrate buffer pH 4.0 is dissolved 50 mg of 2,2′-AZINO-bis (3-ethylbenzthiazo-linsulphonic acid (ABTS) and 0.3 μl/ml 30% hydrogen peroxide is added. The pins are immersed in the wells containing substrate solution (150 μl/well) and incubated at room temperature in the dark. Once sufficient colour has developed the reaction is stopped by removing the pins. The plates are then read immediately in a spectrophotometric plate reader at a wavelength of 405 nm. The absorbance values are then plotted against pin number. The epitopic domains are then defined as the continuous sequence of amino acids common to all positive pins in the domain i.e.

Ends that are not written are not given here.

For the sequence “PRRGPPLG [overlapping octameric peptide of HCV core protein on pin support]”, the “Absorbance Units for different sera” value turned out to be 85 Absorbance Units (serum 65221); 109 Absorbance Units (serum 65234); 73 Absorbance Units (serum 65241); 129 Absorbance Units (serum 65276); 110 Absorbance Units (serum L).

For “QIVGGVYL (pin support) [overlapping octameric peptide of HCV core protein on pin support]”, the “Absorbance Units for different sera” value (serum 65221) came to 329 Absorbance Units; the “Absorbance Units for different sera” value (serum 65234) came to 152 Absorbance Units; the “Absorbance Units for different sera” value (serum 65241) is on record as 125 Absorbance Units; the “Absorbance Units for different sera” value (serum 65276) came to 165 Absorbance Units; the “Absorbance Units for different sera” value (serum L) is listed as 161 Absorbance Units.

In the case of “RGPRLGVR (pin support) [overlapping octameric peptide of HCV core protein on pin support]”, the “Absorbance Units for different sera” value reads like this: (serum 65221) 168 Absorbance Units; (serum 65234) 99 Absorbance Units; (serum 65241) 94 Absorbance Units; (serum 65276) 167 Absorbance Units; (serum L) 132 Absorbance Units.

For the sequence “GGQIVGGV (pin support) [overlapping octameric peptide of HCV core protein on pin support]”, the “Absorbance Units for different sera” value runs as follows: (serum 65221) 323 Absorbance Units; (serum 65234) 179 Absorbance Units; (serum 65241) 122 Absorbance Units; (serum 65276) 119 Absorbance Units; (serum L) 119 Absorbance Units.

Turning to “RLGVRATR (pin support) [overlapping octameric peptide of HCV core protein on pin support]”, the “Absorbance Units for different sera” value reads like this: (serum 65221) 81 Absorbance Units; (serum 65234) 100 Absorbance Units; (serum 65241) 180 Absorbance Units; (serum 65276) 177 Absorbance Units; (serum L) 124 Absorbance Units.

As to “LLPRRGPR (pin support) [overlapping octameric peptide of HCV core protein on pin support]”, the “Absorbance Units for different sera” value amounted to 142 Absorbance Units (serum 65221); 101 Absorbance Units (serum 65234); 129 Absorbance Units (serum 65241); 98 Absorbance Units (serum 65276); 133 Absorbance Units (serum L).

Take “GVYLLPRR (also: pin support) [Gly-Val-Tyr-Leu-Leu-Pro-Arg-Arg, overlapping octameric peptide of HCV core protein on pin support]”: the “Absorbance Units for different sera” value came to 613 Absorbance Units (serum 65221); 229 Absorbance Units (serum 65234); 511 Absorbance Units (serum 65241); 350 Absorbance Units (serum 65276); 378 Absorbance Units (serum L).

On to “RRGPRLGV (pin support) [overlapping octameric peptide of HCV core protein on pin support]”, for which the “Absorbance Units for different sera” value (serum 65221) is reported as 145 Absorbance Units; the “Absorbance Units for different sera” value (serum 65234) was found to be 146 Absorbance Units; the “Absorbance Units for different sera” value (serum 65241) is reported as 85 Absorbance Units; the “Absorbance Units for different sera” value (serum 65276) is recorded as 150 Absorbance Units; the “Absorbance Units for different sera” value (serum L) was 123 Absorbance Units.

With “GGGQIVGG (pin support) [overlapping octameric peptide of HCV core protein on pin support]”, the “Absorbance Units for different sera” value reads like this: (serum 65221) 137 Absorbance Units; (serum 65234) 134 Absorbance Units; (serum 65241) 121 Absorbance Units; (serum 65276) 127 Absorbance Units; (serum L) 121 Absorbance Units.

As to “GPRLGVRA (pin support) [overlapping octameric peptide of HCV core protein on pin support]”, the “Absorbance Units for different sera” value is listed as 111 Absorbance Units (serum 65221); 75 Absorbance Units (serum 65234); 60 Absorbance Units (serum 65241); 146 Absorbance Units (serum 65276); 101 Absorbance Units (serum L).

Regarding “GQIVGGVY (pin support) [overlapping octameric peptide of HCV core protein on pin support]”, the “Absorbance Units for different sera” value runs as follows: (serum 65221) 216 Absorbance Units; (serum 65234) 165 Absorbance Units; (serum 65241) 112 Absorbance Units; (serum 65276) 128 Absorbance Units; (serum L) 138 Absorbance Units.

For the sequence “PRLGVRAT (pin support) [overlapping octameric peptide of HCV core protein on pin support]”, the “Absorbance Units for different sera” value was determined as 166 Absorbance Units (serum 65221); 88 Absorbance Units (serum 65234); 79 Absorbance Units (serum 65241); 155 Absorbance Units (serum 65276); 115 Absorbance Units (serum L).

As for “IVGGVYLL (pin support) [overlapping octameric peptide of HCV core protein on pin support]”, the “Absorbance Units for different sera” value is, setting by setting: (serum 65221) 268 Absorbance Units; (serum 65234) 186 Absorbance Units; (serum 65241) 126 Absorbance Units; (serum 65276) 183 Absorbance Units; (serum L) 158 Absorbance Units.

Turning to “VGGVYLLP (pin support) [overlapping octameric peptide of HCV core protein on pin support]”, the “Absorbance Units for different sera” value (serum 65221) was 83 Absorbance Units; the “Absorbance Units for different sera” value (serum 65234) turned out to be 235 Absorbance Units; the “Absorbance Units for different sera” value (serum 65241) is 144 Absorbance Units; the “Absorbance Units for different sera” value (serum 65276) is 132 Absorbance Units; the “Absorbance Units for different sera” value (serum L) is 169 Absorbance Units.

With “GGVYLLPR (pin support) [overlapping octameric peptide of HCV core protein on pin support]”, the “Absorbance Units for different sera” value runs as follows: (serum 65221) 132 Absorbance Units; (serum 65234) 344 Absorbance Units; (serum 65241) 311 Absorbance Units; (serum 65276) 246 Absorbance Units; (serum L) 191 Absorbance Units.

With “VYLLPRRG (pin support) [Val-Tyr-Leu-Leu-Pro-Arg-Arg-Gly, overlapping octameric peptide of HCV core protein on pin support]”, the “Absorbance Units for different sera” value worked out at 769 Absorbance Units (serum 65221); 280 Absorbance Units (serum 65234); 641 Absorbance Units (serum 65241); 440 Absorbance Units (serum 65276); 306 Absorbance Units (serum L).
